The experiment addresses T1, SGK1 (Homo sapiens, UniProt O00141).
T1 sequence (O00141 1-431): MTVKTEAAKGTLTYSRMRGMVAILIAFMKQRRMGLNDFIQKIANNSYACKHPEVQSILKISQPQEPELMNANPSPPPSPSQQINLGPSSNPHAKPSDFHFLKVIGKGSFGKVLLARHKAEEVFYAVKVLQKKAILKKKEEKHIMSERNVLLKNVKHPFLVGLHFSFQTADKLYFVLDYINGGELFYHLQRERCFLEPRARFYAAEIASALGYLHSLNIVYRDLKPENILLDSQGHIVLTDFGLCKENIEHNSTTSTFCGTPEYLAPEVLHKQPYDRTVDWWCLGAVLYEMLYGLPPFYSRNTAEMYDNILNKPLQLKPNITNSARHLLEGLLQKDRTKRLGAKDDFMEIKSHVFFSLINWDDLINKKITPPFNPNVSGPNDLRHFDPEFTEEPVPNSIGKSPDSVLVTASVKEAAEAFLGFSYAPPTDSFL
Description: SGK1 inhibition Assay B (Echo mass spectrometry of phosphorylated peptide product). In kind it is biochemical. The settings on record: 60 min at room temperature.

Structures are written as SMILES.

Description: 20 μl of 2 nM SGK1 were added in 20 mM Hepes+10 mM MgCl2+0015% Brij-35+4 mM DTT+0.05 mg/ml BSA and the reaction incubated for 60 min at room temperature. The enzymatic reaction was quenched by addition 10 μl of 1% Formic Acid+150 nM Internal Standard: FITC-(Ahx)KKRNRR(pS)VA^—OH (final concentration). The plates are spun down at 3700 RPM for 10 minutes to remove all precipitate. Samples were loaded on to the Sciex Echo Mass Spec attached to a Sciex 6500 equipped with ESI and was used to analyze the phosphorylated peptide product. MRM transition of product and internal standard were monitored at m/z 755 to 937.5 and m/z 757.7 to 941.3 respectively. Peak area of analyte was normalized with internal standard.
Dose response curves were generated to determine the concentration required for inhibiting 50% of the enzyme activity. Compounds were dissolved at 10 mM in dimethylsulfoxide (DMSO) and evaluated at eleven concentrations.

In general, IC50 refers to the concentration at which inhibition is half-maximal. Take `Nc1ncnn2c(-c3ccc(-n4cnnn4)c(F)c3)cc(N3CCC[C@@H](NC(=O)c4sc(Cl)cc4OC4CC5CC4CN5C4COC4)C3)c12` (stereo partly drawn) [Example 994, N—((R)-1-(4-amino-7-(3-fluoro-4-(1H-tetrazol-1-yl)phenyl)pyrrolo[2,1-f][1,2,4]triazin-5-yl)piperidin-3-yl)-5-chloro-3-((2-(oxetan-3-yl)-2-azabicyclo[2.2.1]heptan-5-yl)oxy)thiophene-2-carboxamide]: the IC50 is 0.6 nM.

Take `CC(C)N1CC2(CC(Oc3cc(Cl)sc3C(=O)N[C@@H]3CCCN(c4cc(-c5ccnc(C#N)c5)n5ncnc(N)c45)C3)C2)C1` [Example 995]: the 50% inhibitory concentration (IC50) was determined as 1 nM.

As for `COC[C@@H](C)NC1CCC(Oc2nc(C)sc2C(=O)N[C@@H]2CCCN(c3cc(C4=CC(=O)OC4)n4ncnc(N)c34)C2)CC1` (stereo partly drawn) [Example 996, N—((R)-1-(4-amino-7-(5-oxo-2,5-dihydrofuran-3-yl)pyrrolo[2,1-f][1,2,4]triazin-5-yl)piperidin-3-yl)-4-((4-(((R)-1-methoxypropan-2-yl)amino)cyclohexyl)oxy)-2-methylthiazole-5-carboxamide], the IC50 amounted to 1.1 nM.

As to `Cc1nc(OC2CCC(N3CC(O)C3)CC2)c(C(=O)N[C@@H]2CCCN(c3cc(C4=CC(=O)OC4)n4ncnc(N)c34)C2)s1` (stereo partly drawn) [Example 997, (R)-N-(1-(4-amino-7-(5-oxo-2,5-dihydrofuran-3-y1)pyrrolo[2,1-f] [1,2,4]triazin-5-y1)piperidin-3-y1)-4-((4~(3-hydroxyazetidin-1-yl)cyclohexyl)oxy)-2-methylthiazole-5-carboxamide], the midpoint of inhibition, the IC50, lay at 0.6 nM.

Turning to `Cc1nc(OC2CCC(N3CCC3)CC2)c(C(=O)N[C@@H]2CCCN(c3cc(C4=CC(=O)OC4)n4ncnc(N)c34)C2)s1` (stereo partly drawn) [Example 998, (R)-N-(1-(4-amino-7-(5-oxo-2,5-dihydrofuran-3-y1)pyrrolo[2,1-f] [1,2,4]triazin-5-yl)piperidin-3-y1)-4-((4-(azetidin-1-yl)cyclohexyl)oxy)-2-methylthiazole-5-carboxamide], it took 1.1 nM to reach half-maximal inhibition (IC50).

Molecule `Cc1nc(OC2CCC(N3CC(C)C3)CC2)c(C(=O)N[C@@H]2CCCN(c3cc(C4=CC(=O)OC4)n4ncnc(N)c34)C2)s1` (stereo partly drawn) [Example 999, (R)-N-(1-(4-amino-7-(5-oxo-2,5-dihydrofuran-3-y1)pyrrolo[2,1-f] [1,2,4]triazin-5-yl)piperidin-3-y1)-2-methyl-4-((4-(3-methylazetidin-1-yl)cyclohexyl)oxy)thiazole-5-carboxamide] displayed an IC50 of 0.7 nM.

`COCC(C)(C)NC1CCC(Oc2nc(C)sc2C(=O)N[C@@H]2CCCN(c3cc(C4=CC(=O)OC4)n4ncnc(N)c34)C2)CC1` (stereo partly drawn) [Example 1000, (R)—N-(1-(4-amino-7-(5-oxo-2,5-dihydrofuran-3-yl)pyrrolo[2,1-f][1,2,4]triazin-5-yl)piperidin-3-yl)-4-((4-((1-methoxy-2-methylpropan-2-yl)amino)cyclohexyl)oxy)-2-methylthiazole-5-carboxamide]: the IC50 amounted to 0.7 nM.

Molecule `CCC(C)(C)NC1CCC(Oc2nc(C)sc2C(=O)N[C@@H]2CCCN(c3cc(C4=CC(=O)OC4)n4ncnc(N)c34)C2)CC1` (stereo partly drawn) [Example 1001, (R)—N-(1-(4-amino-7-(5-oxo-2,5-dihydrofuran-3-yl)pyrrolo[2,1-f][1,2,4]triazin-5-yl)piperidin-3-yl)-2-methyl-4-((4-(tert-pentylamino)cyclohexyl)oxy)thiazole-5-carboxamide] registered an IC50 of 0.6 nM.

As for `Cc1nc(O[C@H]2CC[C@@H](NC3CCOCC3)CC2)c(C(=O)N[C@@H]2CCCN(c3cc(C4=CC(=O)OC4)n4ncnc(N)c34)C2)s1` [Example 1002, N—((R)-1-(4-amino-7-(5-oxo-2,5-dihydrofuran-3-yl)pyrrolo[2,1-f][1,2,4]triazin-5-yl)piperidin-3-yl)-2-methyl-4-(((1S,4S)-4-((tetrahydro-2H-pyran-4-yl)amino)cyclohexyl)oxy)thiazole-5-carboxamide], 0.3 nM corresponded to half-maximal inhibition (IC50).

In the case of `CCC(CC)N[C@H]1CC[C@@H](Oc2nc(C)sc2C(=O)N[C@@H]2CCCN(c3cc(C4=CC(=O)OC4)n4ncnc(N)c34)C2)CC1` [Example 1003, N—((R)-1-(4-amino-7-(5-oxo-2,5-dihydrofuran-3-yl)pyrrolo[2,1-f][1,2,4]triazin-5-yl)piperidin-3-yl)-2-methyl-4-(((1S,4S)-4-(pentan-3-ylamino)cyclohexyl)oxy)thiazole-5-carboxamide], the IC50 is 0.8 nM.

Consider `[2H]C([2H])([2H])N([C@H]1CC[C@@H](Oc2nc(C)sc2C(=O)N[C@@H]2CCCN(c3cc(C4=CC(=O)OC4)n4ncnc(N)c34)C2)CC1)C([2H])([2H])[2H]` [Example 1004, N—((R)-1-(4-amino-7-(5-oxo-2,5-dihydrofuran-3-yl)pyrrolo[2,1-f][1,2,4]triazin-5-yl)piperidin-3-yl)-4-(((1S,4S)-4-(bis(methyl-d3)amino)cyclohexyl)oxy)-2-methylthiazole-5-carboxamide], for which the IC50 is 0.9 nM.

For `CCC(C)(C)NC1CCC(Oc2nc(C)sc2C(=O)N[C@@H]2CCCN(c3cc(C4=C(C)C(=O)OC4)n4ncnc(N)c34)C2)CC1` (stereo partly drawn) [Example 1005, (R)—N-(1-(4-amino-7-(4-methyl-5-oxo-2,5-dihydrofuran-3-yl)pyrrolo[2,1-f][1,2,4]triazin-5-yl)piperidin-3-yl)-2-methyl-4-((4-(tert-pentylamino)cyclohexyl)oxy)thiazole-5-carboxamide], the IC50 turned out to be 0.5 nM.

Molecule `CC1=C(c2cc(N3CCCC(NC(=O)c4sc(C)nc4OC4CCC(N5CCC5)CC4)C3)c3c(N)ncnn23)COC1=O` [Example 1006, (R)-N-(1-(4-amino-7-(4-methyl-5-oxo-2,5-dihydrofuran-3-yl)pyrrolo[2,1-f][1,2,4]triazin-5-y1)piperidin-3-y1)-4-((4-(azetidin-1-yl)cyclohexyl)oxy)-2-methylthiazole-5-carboxamide] showed an IC50 of 0.8 nM.

Molecule `COC[C@@H](C)N[C@H]1CC[C@@H](Oc2nc(C)sc2C(=O)N[C@@H]2CCCN(c3cc(C4=C(C)C(=O)OC4)n4ncnc(N)c34)C2)CC1` [Example 1007, N-((R)-1-(4-amino-7-(4-methyl-5-oxo-2.5-dihydrofuran-3-yl)pyrrolo[2,1-f][1,2,4]triazin-5-y1)piperidin-3-y1)-4-((4-(((R)-1-methoxypropan-2-yl)amino)cyclohexyl)oxy)-2~methylthiazole-5-carboxamide] showed a 50% inhibitory concentration (IC50) of 1 nM.

Molecule `COC[C@@H](C)NC1CCC(Oc2nc(C)sc2C(=O)N[C@@H]2CCCN(c3cc(C4=C(C)C(=O)OC4)n4ncnc(N)c34)C2)CC1` (stereo partly drawn) [Example 1008, N-((R)-1-(4-amino-7-(4-methyl-5-oxo-2,5-dihydrofuran-3-y1)pyrrolo[2,1-f][1,2,4]triazin-5-yl)piperidin-3-y1)-4-((4-(((R)-1-methoxypropan-2-yl)amino)cyclohexyl)oxy)-2-methylthiazole-5-carboxamide] displayed an IC50 of 1 nM.

With `CCC(CO)NC1CCC(Oc2nc(C)sc2C(=O)NC2CCCN(c3cc(C4=C(C)C(=O)OC4)n4ncnc(N)c34)C2)CC1` [Example 1009, N-((R)-1-(4-amino-7-(4-methyl-5-oxo-2,5-dihydrofuran-3-yl)pyrrolo[2,1-f][1,2,4]triazin-5-y1)piperidin-3-y1)-4-((4-(((S)-1-hydroxybutan-2-yl)amino)cyclohexyl)oxy)-2-methylthiazole-5-carboxamide], half-maximal inhibition (IC50) required 1.9 nM.

In turn, `CC[C@H](CO)N[C@H]1CC[C@@H](Oc2nc(C)sc2C(=O)N[C@@H]2CCCN(c3cc(C4=C(C)C(=O)OC4)n4ncnc(N)c34)C2)CC1` [Example 1010, N-((R)-1-(4-amino-7-(4-methyl-5-oxo-2,5~dihydrofuran~3-yl)pyrrolo[2,1-f][1,2,4]triazin-5-y1)piperidin-3-y1)-4-((4-(((R)-1-hydroxybutan-2-yl)amino)cyclohexyl)oxy)-2-methylthiazole-5-carboxamide] showed an IC50 of 2.1 nM.

`CCNC1CCC(Oc2nc(C)sc2C(=O)N[C@@H]2CCCN(c3cc(C4=C(C)C(=O)OC4)n4ncnc(N)c34)C2)CC1` (stereo partly drawn) [Example 1011, (R)—N-(1-(4-amino-7-(4-methyl-5-oxo-2,5-dihydrofuran-3-yl)pyrrolo[2,1-f][1,2,4]triazin-5-yl)piperidin-3-yl)-4-((4-(ethylamino)cyclohexyl)oxy)-2-methylthiazole-5-carboxamide] came in with an IC50 of 2.2 nM.

The molecule `CC1=C(c2cc(N3CCC[C@@H](NC(=O)c4sc(C)nc4O[C@H]4CC[C@@H](NC5CCOC5(C)C)CC4)C3)c3c(N)ncnn23)COC1=O` (stereo partly drawn) [Example 1012, N—((R)-1-(4-amino-7-(4-methyl-5-oxo-2,5-dihydrofuran-3-yl)pyrrolo[2,1-f][1,2,4]triazin-5-yl)piperidin-3-yl)-4-(((1S,4S)-4-((2,2-dimethyltetrahydrofuran-3-yl)amino)cyclohexyl)oxy)-2-methylthiazole-5-carboxamide] showed an IC50 of 1.1 nM.

For the molecule `[2H]C([2H])([2H])N([C@H]1CC[C@@H](Oc2nc(C)sc2C(=O)N[C@@H]2CCCN(c3cc(C4=C(C)C(=O)OC4)n4ncnc(N)c34)C2)CC1)C([2H])([2H])[2H]` [Example 1013, N—((R)-1-(4-amino-7-(4-methyl-5-oxo-2,5-dihydrofuran-3-yl)pyrrolo[2,1-f][1,2,4]triazin-5-yl)piperidin-3-yl)-4-(((1S,4S)-4-(bis(methyl-d3)amino)cyclohexyl)oxy)-2-methylthiazole-5-carboxamide], the IC50 is 1.7 nM.

Source of the values: patent publication US20260250290A1 (BRISTOL-MYERS SQUIBB COMPANY, priority 2023, published 2026).
